Measurements published in patent publication US7255796B2, “Method of preventing hydrogen sulfide odor generation in an aqueous medium” (General Electric Company, priority 2004, dated 2007).
Marks after values point to notes of the source that are not given here. Each block holds one compound with its values, some of them ahead of it.

Assays:
[1] = Serum bottle test: medium pH after treatment; format: physicochemical
Method: (§1) The test protocol was as follows: 100 mL serum bottles were filled with synthetic nutrient medium, then stoppered, capped, and autoclaved, and allowed to cool to at least 35C. Using a 1 mL syringe with needle, the treatment was added at desired dosages to prepared serum bottles (triplicates of each dosage). No treatment was added for baseline controls. At least 6 baseline serum bottles were used. Using a 1 mL syringe with needle, 0.1 mL of prepared culture was added to each serum bottle.
(§2) Next, a 10^10 cells/ml concentration of the sulfate reducers was prepared (using autoclaved synthetic nutrient medium) inside an anaerobic chamber. Using a 1 ml syringe with needle, 0.1 ml of the prepared sulfate reducers culture was added to each serum bottle. The bottles were then incubated at the desired temperature.
(§3) The baseline dissolved sulfide levels were then measured to determine if the samples were ready for efficacy analysis. Using a 30 mL syringe with needle, 30 mL of sample was removed from each serum bottle. About 25 mL of the sample was added to a 30 mL bottle containing 0.125 mL zinc acetate solution, followed by adding 1 mL of 1N NaOH. The sulfide in the fixed sample was then measured. The remaining 5 mL of sample in the syringe was used for pH determination. Separate field studies were also conducted.

[2] = system: microorganisms (PetriFilm Count); experiment: Serum bottle test: PetriFilm count after treatment (toxicity); format: cell-based
Method: as §1, §2, §3

[3] = system: sulfate reducing bacteria (SRB); experiment: Serum bottle test: SRB growth after treatment (toxicity); format: cell-based, sulfate reducers
Method: as §1, §2, §3

[4] = system: real municipal wastewater; experiment: H2S inhibition using real municipal wastewater, Field Study 2
[5] = system: real municipal wastewater; experiment: H2S inhibition using real municipal wastewater, Field Study 1
[6] = scavenger dosage 200 ppm active
[7] = Field Study 2, scavenger dosage 10 ppm active
[8] = Field Study 1, scavenger dosage 10 ppm active

SMILES: O=CCCCC=O [Glutaraldehyde, reference compound]
- Medium pH after Treatment [1, 6]: 7.5
- PetriFilm Count after Treatment [2, 6]: 0
- SRB Growth after Treatment [3, 6]: 0

SMILES: O=CC=O [Glyoxal, glyoxal]
- Head Space H2S ([4]; Field Study 2, scavenger dosage 0.5 ppm active): 47 ppm
- Head Space H2S ([4]; Field Study 2, scavenger dosage 4.0 ppm active): 12 ppm
- Head Space H2S ([4]; Field Study 2, scavenger dosage 6.0 ppm active): 0.1 ppm
- Head Space H2S ([4]; Field Study 2, scavenger dosage 8.0 ppm active): 0.1 ppm
- Head Space H2S [4, 7]: 5.0* ppm
- Head Space H2S ([5]; Field Study 1, scavenger dosage 0.3 ppm active): 27 ppm
- Head Space H2S ([5]; Field Study 1, scavenger dosage 3.8 ppm active): 8 ppm
- Head Space H2S ([5]; Field Study 1, scavenger dosage 6.0 ppm active): 7 ppm
- Head Space H2S ([5]; Field Study 1, scavenger dosage 8 ppm active): 2 ppm
- Head Space H2S [5, 8]: 0.5 ppm
- Medium pH after Treatment ([1]; scavenger dosage 8 ppm active): 6.5
- PetriFilm Count after Treatment ([2]; scavenger dosage 8 ppm active): 8.3 × 10^8
- SRB Growth after Treatment ([3]; scavenger dosage 8 ppm active): 10^8

SMILES: O=[N+]([O-])[O-].O=[N+]([O-])[O-].[Mg+2] [Mg(NO3)2, magnesium nitrate, reference compound]
- Head Space H2S [4, 7]: 47 ppm
- Head Space H2S [5, 8]: 27 ppm

- Medium pH after Treatment ([1]; scavenger dosage 8 ppm active): 6.5
SMILES: c1ncncn1 [Triazine, triazine]
- PetriFilm Count after Treatment ([2]; scavenger dosage 8 ppm active): 5.5 × 10^8
- SRB Growth after Treatment ([3]; scavenger dosage 8 ppm active): 10^8
